From PubChem BioAssay AID602156 (GNF / Scripps Winzeler lab, 2011)
Calls of active or inactive are those of the source. How the calls were made is not given here.

Test system: P. yoelii liver stage in HepG2-A16-CD81EGFP, imaging
Test: exo-erythrocytic parasite development inhibition – imaging, Malaria Box, P. yoelii, HepG2-A16-CD81EGFP, dose response (AID 602156);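 further: infected cells exposed to compound for 48 hours before fixation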

SMILES: COC(=O)c1ccc(C2C3=C(CC(c4ccco4)CC3=O)Nc3ccccc3N2C(=O)c2ccccc2)cc1 (stereo not given)
- IC50: > 4780 nM (inactive)

SMILES: Cn1cnnc1SCC(=O)Nc1ccccc1C(F)(F)F
- IC50: > 10000 nM (inactive)

SMILES: Nc1cccc(C(=O)Nc2ccc(Oc3cccc(Oc4ccc(NC(=O)c5cccc(N)c5)cc4)c3)cc2)c1
- IC50: 1760 nM

SMILES: Cc1ccc(-c2cc(C(=O)OCC(=O)c3cccc([N+](=O)[O-])c3)c3cc(C)ccc3n2)cc1
- IC50: > 10000 nM (inactive)

SMILES: CCOc1ccc(N(C(=O)C2COc3ccccc3O2)C(C(=O)NC2CCCCC2)c2cn(C)nc2C)cc1 (stereo not given)
- IC50: > 10000 nM (inactive)

SMILES: CCCCc1c(C)[nH]c2ccc(Br)cc2c1=O
- IC50: 64.7 nM

SMILES: COc1ccc(Nc2nc(NCc3ccccc3)c3ccccc3n2)cc1
- IC50: 305 nM

SMILES: CC1(C)N=C(N)N=C(N)N1c1ccc(Oc2ccc(Cl)cc2)c(Cl)c1
- IC50: 73 nM

SMILES: CCC(Sc1nnc(-c2ccc(C)cc2)c(-c2ccc(C)cc2)n1)C(=O)NCCOC (stereo not given)
- IC50: 303 nM

SMILES: CCOC(=O)c1cnc2ccc(OC)cc2c1Cl
- IC50: 410 nM

SMILES: CCc1c(C#N)c(N)nc(SCC(=O)c2ccc(C)cc2)c1C#N
- IC50: > 10000 nM (inactive)

SMILES: O=C(Nc1ccc(-c2nc3ccccc3[nH]2)cc1)c1ccc(-c2ccc(Cl)cc2)o1
- IC50: 6650 nM

SMILES: O=C1C2=C(Nc3ccccc3SC2c2ccc(OCc3ccccc3)cc2)c2ccccc21 (stereo not given)
- IC50: 58 nM

SMILES: S=C(NN=Cc1ccccn1)NC1CC2CC1C1C=CCC21 (stereo not given)
- IC50: 25.6 nM

SMILES: O=C1Nc2ccccc2C12Nc1ccccc1-c1nc3ccccc3n12 (stereo not given)
- IC50: > 10000 nM (inactive)

SMILES: CCOC(=O)C1=C(c2ccccc2)N=c2sc(=Cc3cc(C)n(-c4ccc(F)cc4)c3C)c(=O)n2C1c1cccc(OC)c1OC (stereo not given)
- IC50: 2450 nM

SMILES: CCC(C)(C)c1ccc(OCCCC[n+]2cccc(C)c2C)c(C(C)(C)CC)c1
- IC50: 45.5 nM

SMILES: CCCc1c(C)[nH]c2ccccc2c1=O
- IC50: 279 nM

SMILES: COc1cccc(Nc2nc(NCCO)c3ccccc3n2)c1
- IC50: 62.3 nM

SMILES: COC(OC)C(C)=NNC(N)=S
- IC50: 4.93 nM

SMILES: CCCCN(CCCC)S(=O)(=O)c1ccc(NC(=O)c2ccco2)cc1
- IC50: 377 nM

SMILES: COc1cncc(-c2cncc(-c3ccc(C)cc3)n2)c1
- IC50: > 10000 nM (inactive)

SMILES: CCCCC(CC)C(=O)N1CCN(C(CC)c2nc3ccccc3c(=O)n2C)CC1 (stereo not given)
- IC50: 231 nM

SMILES: CC1(C)N=C(N)N=C(N)N1c1ccc(I)cc1
- IC50: 10 nM

SMILES: COc1ccc2nc(SCC(=O)Nc3cccc(NC(=O)CSc4nc5ccc(OC)cc5[nH]4)n3)[nH]c2c1
- IC50: > 9290 nM (inactive)

SMILES: CN(C)c1ccc(C(C=C2C=C(c3ccccc3)C=C(c3ccccc3)O2)=C2C=CC(=[N+](C)C)C=C2)cc1
- IC50: 51.9 nM

SMILES: OC(CNC1CCCCC1)Cn1c2ccccc2c2ccccc21 (stereo not given)
- IC50: 3920 nM

SMILES: CC[n+]1c(C=C2C=Cc3cc(C)ccc3N2C)sc(C)c1C
- IC50: 11.3 nM

SMILES: CCN(CC)CCCN(Cc1cc2cc(OC)c(OC)cc2[nH]c1=O)C(=S)Nc1cccc(Cl)c1
- IC50: 162 nM

SMILES: CCCCCC[n+]1ccccc1/C=C/c1ccc(N(C)C)cc1
- IC50: 55.9 nM

SMILES: CCOC(=O)c1c[nH]c2ccc(C(C)C)cc2c1=O
- IC50: 352 nM

SMILES: COc1cccc(-c2cncc(-c3cncc(OC)c3)n2)c1
- IC50: > 10000 nM (inactive)

SMILES: CCC[n+]1cccc2ccc3cccnc3c21
- IC50: 903 nM

SMILES: CC(c1nc2ccccc2c(=O)n1C)N1CCN(C(=O)C(C)(C)C)CC1 (stereo not given)
- IC50: 492 nM

SMILES: c1ccc(OCCOc2ccc(Nc3c4ccccc4nc4ccccc34)cc2)cc1
- IC50: 559 nM

SMILES: COc1cccc(C(=O)NC(c2ccccc2OC)c2cc(Cl)c3cccnc3c2O)c1 (stereo not given)
- IC50: 544 nM

SMILES: O=C1C(Nc2ccc(O)cc2)=CC(=NS(=O)(=O)c2cccs2)c2ccccc21
- IC50: 85.6 nM

SMILES: CN(C)CCCN(Cc1cc2cc3c(cc2[nH]c1=O)OCO3)C(=S)Nc1cccc(Cl)c1
- IC50: 818 nM

SMILES: COc1ccc(C2CC(=O)C3=C(C2)NC(C)=C(C(=O)OC(C)C)C3c2cccc(C)c2)cc1OC (stereo not given)
- IC50: 1840 nM

SMILES: Nc1ccc(-c2nc3cc(Oc4ccc(Oc5ccc6[nH]c(-c7ccc(N)cc7)nc6c5)cc4)ccc3[nH]2)cc1
- IC50: 319 nM

SMILES: CCCn1c(-c2cccc(Br)c2)nc2ccccc21
- IC50: > 8910 nM (inactive)

SMILES: O=C(Nc1ccc(-c2nc3ccc(NC(=O)c4ccc(Br)o4)cc3[nH]2)cc1)c1ccc(Br)o1
- IC50: 812 nM

SMILES: COc1ccc2nc(C)cc(Nc3ccc(Cl)c(Cl)c3)c2c1
- IC50: 438 nM

SMILES: CCCCc1c(CCC)c(=N)c2ccccc2n1C
- IC50: 244 nM

SMILES: COc1ccc(Nc2cc(C)nc(NCc3ccccc3)n2)cc1
- IC50: 636 nM

SMILES: CCOC(=O)c1ccc2[nH]c(-c3ccccc3)cc(=O)c2c1
- IC50: 20 nM

SMILES: Cc1ccc(-n2c(-c3ccccc3)cc(C=NNC(=O)c3cccc(O)c3)c2-c2ccccc2)cc1
- IC50: 20.2 nM

SMILES: Cc1nc2cc(-c3ccc(I)cc3)[nH]n2c(=O)c1C
- IC50: 119 nM

SMILES: CCCCN(CCCC)[P+](N(CCCC)CCCC)(N(CCCC)CCCC)N(CCCC)CCCC
- IC50: 11.5 nM

SMILES: CCOC(=O)C1=C(C)NC2=C(C(=O)C(C(=O)OCC)C(c3ccccc3OC)C2)C1c1ccc([N+](=O)[O-])cc1 (stereo not given)
- IC50: 335 nM

SMILES: COc1cccc(NC(=O)c2ccc(NCCCN3CC(C)CC(C)C3)c([N+](=O)[O-])c2)c1 (stereo not given)
- IC50: 437 nM

SMILES: Cc1ccc2nc3nc4c(C)cccc4c(N)c3cc2c1
- IC50: 47.4 nM

SMILES: Cc1nc2ccc(NC(=O)C3CC3)cc2c(=O)n1Cc1ccc(Cl)cc1
- IC50: > 10000 nM (inactive)

SMILES: CCc1ccccc1NC(C)=O
- IC50: > 10000 nM (inactive)

SMILES: CCCc1nc2ccc(NC(=O)c3ccco3)cc2c(=O)n1Cc1ccc(-c2ccccc2)cc1
- IC50: 306 nM

SMILES: COc1ccccc1CNC(=O)c1nn(-c2ccc(Cl)cc2)c(=O)c2ccccc12
- IC50: > 10000 nM (inactive)

SMILES: COc1ccc2[nH]c3ccccc3c(=O)c2c1
- IC50: 135 nM

SMILES: COc1ccc2cc3[n+](cc2c1OC)CCc1cc2c(cc1-3)OCO2
- IC50: 548 nM

SMILES: COc1ccccc1Cc1nc2ccccc2nc1SCC(=O)Nc1cccc(C(F)(F)F)c1
- IC50: > 10000 nM (inactive)

SMILES: CCCCCCCC[n+]1c(C)n(CC)c2cc(C(=O)OCC)ccc21
- IC50: 990 nM

SMILES: Cc1nc2ccccc2c(=O)n1-c1ccc([N+](=O)[O-])cc1
- IC50: > 10000 nM (inactive)

SMILES: CCN1C(=Cc2cc[n+](C)cc2)C=Cc2cc(C)ccc21
- IC50: 170 nM

SMILES: COc1ccc(C2CC(=O)C3=C(C2)NC(C)=C(C(=O)OC2CCCC2)C3c2cccc(C)c2)cc1OC (stereo not given)
- IC50: 779 nM

SMILES: Nc1ccc(N2CCCCCC2)cc1
- IC50: 1950 nM

SMILES: Cc1ccc(NC(=O)C2C3C=CC4(O3)C2C(=O)N(CCCN2CCOCC2)C4C(=O)NC2CCCC(C)C2C)cc1Cl (stereo not given)
- IC50: > 10000 nM (inactive)

SMILES: CCC1CN2CCc3cc(OC)c(OC)cc3C2CC1CC1NCCc2cc(OC)c(OC)cc21 (stereo not given)
- IC50: 80.2 nM

SMILES: COC(=O)C1=C(C)NC2=C(C(=O)CC(c3ccccc3Cl)C2)C1c1ccc([N+](=O)[O-])cc1 (stereo not given)
- IC50: 842 nM

SMILES: COc1cccc(OC)c1C(=O)Nn1c(-c2cccc(C)c2)nc2ccccc2c1=O
- IC50: > 10000 nM (inactive)

SMILES: CCCCCCN(C(=O)c1ccc(C(C)(C)C)cc1)C(CC)c1nc2ccccc2c(=O)n1-c1ccc(F)cc1 (stereo not given)
- IC50: > 6910 nM (inactive)

SMILES: CCN(CC)CCCNc1nc2cc(OC)c(OC)cc2c2nc(-c3ccccc3)nn12
- IC50: 327 nM

SMILES: Cc1ccnc(NC(c2ccc3ccccc3c2)c2ccc3cccnc3c2O)c1 (stereo not given)
- IC50: 556 nM

SMILES: CCc1c(C)c(C#N)c2nc3ccccc3n2c1NCc1ccccc1
- IC50: > 9600 nM (inactive)

SMILES: CCOC(=O)c1ccc(NCc2c(C)[nH]c3ccccc3c2=O)cc1
- IC50: 137 nM

SMILES: CCCCC(=O)NC(c1cccc([N+](=O)[O-])c1)c1ccc2cccnc2c1O (stereo not given)
- IC50: 449 nM

SMILES: O=C1c2ccccc2C2=Nc3ccccc3SC(c3cccc(F)c3)C12 (stereo not given)
- IC50: 162 nM
